Source: patent publication US8129417B2, “Substituted octahydrocyclopenta[C]pyrrol-4-amines as calcium channel blockers” (Abbott Laboratories, priority 2008, dated 2012)

Target: human Cav2.2 (Homo sapiens, UniProt Q00975)
Test: Assessment of calcium channel activity using FLIPR (Ca2+ influx in IMR32 cells)
Type: cell-based
Conditions: for IC50: 2 μM nifedipine, depolarized with 80 mM KCl
In short: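 IC50 came from sigmoidal non-linear regression of percent inhibition, relative to uninhibited activity, across compound concentrations. Calcium influx was measured by FLIPR in IMR32 cells plated at 1-1.2×10^5 cells/well and cultured 48 h at 37 °C.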

[1] = 60 minute pre-incubation with compound
[2] = 3 minute pre-incubation with compound (*)

human Cav2.2, sequence (Q00975 whole entry): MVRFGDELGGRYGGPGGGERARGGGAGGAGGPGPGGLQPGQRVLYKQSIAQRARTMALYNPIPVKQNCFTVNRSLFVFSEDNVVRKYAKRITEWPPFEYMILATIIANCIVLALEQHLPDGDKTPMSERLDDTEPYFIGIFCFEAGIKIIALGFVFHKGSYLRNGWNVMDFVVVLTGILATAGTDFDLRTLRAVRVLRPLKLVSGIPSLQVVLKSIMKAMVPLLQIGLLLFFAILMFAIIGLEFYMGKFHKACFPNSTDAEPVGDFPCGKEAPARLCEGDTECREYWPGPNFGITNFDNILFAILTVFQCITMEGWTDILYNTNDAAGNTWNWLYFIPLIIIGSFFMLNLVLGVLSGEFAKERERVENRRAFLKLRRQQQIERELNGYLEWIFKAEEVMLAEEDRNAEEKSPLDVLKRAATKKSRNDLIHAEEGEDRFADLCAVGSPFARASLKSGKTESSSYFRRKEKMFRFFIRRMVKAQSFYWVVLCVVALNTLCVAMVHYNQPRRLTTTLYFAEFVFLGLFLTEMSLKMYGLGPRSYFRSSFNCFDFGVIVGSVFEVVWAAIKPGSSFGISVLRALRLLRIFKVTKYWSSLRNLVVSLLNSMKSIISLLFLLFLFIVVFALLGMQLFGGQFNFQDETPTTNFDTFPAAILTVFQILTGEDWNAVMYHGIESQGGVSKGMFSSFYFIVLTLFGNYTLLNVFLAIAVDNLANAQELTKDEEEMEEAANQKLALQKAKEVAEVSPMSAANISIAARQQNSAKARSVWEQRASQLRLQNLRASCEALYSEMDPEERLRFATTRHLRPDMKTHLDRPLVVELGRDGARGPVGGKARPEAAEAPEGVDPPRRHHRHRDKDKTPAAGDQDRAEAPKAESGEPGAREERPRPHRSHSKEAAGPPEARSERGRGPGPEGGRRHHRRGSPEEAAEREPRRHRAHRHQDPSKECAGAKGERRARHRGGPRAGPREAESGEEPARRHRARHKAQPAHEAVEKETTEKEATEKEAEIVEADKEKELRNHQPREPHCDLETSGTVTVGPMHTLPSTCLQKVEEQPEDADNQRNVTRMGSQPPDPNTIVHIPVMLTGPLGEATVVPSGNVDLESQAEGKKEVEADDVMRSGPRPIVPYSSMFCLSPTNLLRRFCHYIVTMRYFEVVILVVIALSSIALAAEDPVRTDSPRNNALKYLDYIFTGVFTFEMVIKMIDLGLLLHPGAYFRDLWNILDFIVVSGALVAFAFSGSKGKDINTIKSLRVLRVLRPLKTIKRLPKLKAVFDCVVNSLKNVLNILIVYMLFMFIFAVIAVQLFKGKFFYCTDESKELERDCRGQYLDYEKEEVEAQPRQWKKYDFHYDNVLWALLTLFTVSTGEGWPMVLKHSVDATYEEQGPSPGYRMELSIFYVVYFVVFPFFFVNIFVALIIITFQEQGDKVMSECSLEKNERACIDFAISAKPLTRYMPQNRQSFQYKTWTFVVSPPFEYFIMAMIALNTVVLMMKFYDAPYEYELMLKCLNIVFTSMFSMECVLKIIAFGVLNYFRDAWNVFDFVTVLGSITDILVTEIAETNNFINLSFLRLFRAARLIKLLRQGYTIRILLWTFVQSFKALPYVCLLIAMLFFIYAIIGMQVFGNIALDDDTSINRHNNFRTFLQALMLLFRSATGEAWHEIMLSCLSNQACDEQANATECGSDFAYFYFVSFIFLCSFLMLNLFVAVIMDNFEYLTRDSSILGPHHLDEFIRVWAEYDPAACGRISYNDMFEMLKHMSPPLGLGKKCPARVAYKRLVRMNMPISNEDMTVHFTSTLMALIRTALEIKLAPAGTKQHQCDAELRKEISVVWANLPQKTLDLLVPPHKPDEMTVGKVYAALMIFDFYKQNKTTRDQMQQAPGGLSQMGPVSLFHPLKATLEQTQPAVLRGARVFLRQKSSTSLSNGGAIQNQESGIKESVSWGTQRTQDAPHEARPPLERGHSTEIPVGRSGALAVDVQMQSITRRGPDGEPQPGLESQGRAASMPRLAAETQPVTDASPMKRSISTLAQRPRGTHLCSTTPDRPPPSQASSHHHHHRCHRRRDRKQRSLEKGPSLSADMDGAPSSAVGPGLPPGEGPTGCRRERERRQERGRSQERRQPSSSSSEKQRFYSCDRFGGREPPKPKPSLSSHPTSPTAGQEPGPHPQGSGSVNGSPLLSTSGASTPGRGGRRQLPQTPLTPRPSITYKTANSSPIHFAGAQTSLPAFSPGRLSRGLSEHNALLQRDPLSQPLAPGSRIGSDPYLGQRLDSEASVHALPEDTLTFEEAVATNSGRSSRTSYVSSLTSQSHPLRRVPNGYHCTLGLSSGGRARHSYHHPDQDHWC
human Cav2.2, sequence (P54289 25-946 partner limits assumed): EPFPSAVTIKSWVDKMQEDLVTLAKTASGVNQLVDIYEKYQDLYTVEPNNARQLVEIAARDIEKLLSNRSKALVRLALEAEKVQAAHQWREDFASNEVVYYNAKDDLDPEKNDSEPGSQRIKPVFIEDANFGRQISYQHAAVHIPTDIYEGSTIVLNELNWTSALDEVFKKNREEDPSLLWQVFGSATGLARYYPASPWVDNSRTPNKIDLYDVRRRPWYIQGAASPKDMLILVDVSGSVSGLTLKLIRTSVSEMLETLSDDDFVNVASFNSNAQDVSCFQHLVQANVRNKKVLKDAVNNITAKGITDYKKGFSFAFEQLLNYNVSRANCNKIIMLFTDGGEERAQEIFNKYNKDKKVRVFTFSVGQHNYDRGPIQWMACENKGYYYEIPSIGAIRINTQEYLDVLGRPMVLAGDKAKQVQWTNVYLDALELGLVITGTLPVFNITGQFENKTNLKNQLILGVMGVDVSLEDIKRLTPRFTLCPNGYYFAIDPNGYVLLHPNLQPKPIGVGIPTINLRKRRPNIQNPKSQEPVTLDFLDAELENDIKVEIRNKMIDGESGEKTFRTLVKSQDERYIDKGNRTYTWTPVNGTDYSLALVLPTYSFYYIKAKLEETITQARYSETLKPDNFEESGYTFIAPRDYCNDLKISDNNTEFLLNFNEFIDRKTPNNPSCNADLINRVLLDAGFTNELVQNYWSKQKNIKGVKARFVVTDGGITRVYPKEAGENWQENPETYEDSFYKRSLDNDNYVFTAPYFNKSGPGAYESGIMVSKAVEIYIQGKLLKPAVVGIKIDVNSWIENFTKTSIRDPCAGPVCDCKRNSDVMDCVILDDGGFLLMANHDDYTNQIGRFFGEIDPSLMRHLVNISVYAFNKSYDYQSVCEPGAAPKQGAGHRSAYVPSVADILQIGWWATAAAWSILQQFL
human Cav2.2, sequence (P54289 947-1103 partner limits assumed): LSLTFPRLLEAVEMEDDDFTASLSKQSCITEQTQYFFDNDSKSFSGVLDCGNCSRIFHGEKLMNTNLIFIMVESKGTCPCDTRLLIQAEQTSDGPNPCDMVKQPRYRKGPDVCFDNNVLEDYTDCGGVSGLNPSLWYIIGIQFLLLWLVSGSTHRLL
human Cav2.2, sequence (P54284 whole entry partner): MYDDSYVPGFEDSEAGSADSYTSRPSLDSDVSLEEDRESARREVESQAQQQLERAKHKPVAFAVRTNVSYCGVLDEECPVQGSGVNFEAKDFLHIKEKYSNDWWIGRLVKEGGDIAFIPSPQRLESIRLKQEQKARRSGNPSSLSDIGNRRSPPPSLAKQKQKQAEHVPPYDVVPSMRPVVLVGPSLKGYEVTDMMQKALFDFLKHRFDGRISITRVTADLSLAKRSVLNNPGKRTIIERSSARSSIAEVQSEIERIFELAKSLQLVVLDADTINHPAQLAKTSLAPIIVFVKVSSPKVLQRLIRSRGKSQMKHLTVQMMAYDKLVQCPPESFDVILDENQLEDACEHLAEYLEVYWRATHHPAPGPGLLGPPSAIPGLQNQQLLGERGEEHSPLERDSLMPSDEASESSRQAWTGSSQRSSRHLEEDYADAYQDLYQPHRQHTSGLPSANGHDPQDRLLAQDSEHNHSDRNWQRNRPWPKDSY

IC50 [1] | Compound | other results
0.23 µM | CN(C(=O)OC(C)(C)C)[C@@H](CC(C)(C)C)C(=O)N[C@@H]1CC[C@H]2CN(S(=O)(=O)c3cccc(C(F)(F)F)c3)C[C@H]21 [Example 338, tert-butyl(S)-4,4-dimethyl-1-oxo-1-((3aS,4R,6aR)-2-(3-(trifluoromethyl)phenylsulfonyl)octahydrocyclopenta[c]pyrrol-4-ylamino)pentan-2-yl(methyl)carbamate] | –
2.32 µM | CCCN(C(=O)[C@H](CC(C)(C)C)NC)[C@H]1CC[C@@H]2CN(S(=O)(=O)c3ccc(C(F)(F)F)cc3)C[C@@H]21 [Example 435, N^2,4-dimethyl-N^1-propyl-N^1-((3aR,4S,6aS)-2-{[4-(trifluoromethyl)phenyl]sulfonyl}octahydrocyclopenta[c]pyrrol-4-yl)-L-leucinamide] | –
2.46 µM | O=C(N[C@H]1CC[C@@H]2CN(S(=O)(=O)c3cccc(C(F)(F)F)c3)C[C@@H]21)[C@@H]1CCCCN1 [Example 390, (2S)—N-((3aR,4S,6aS)-2-{[3-(trifluoromethyl)phenyl]sulfonyl}octahydrocyclopenta[c]pyrrol-4-yl)piperidine-2-carboxamide] | –
– | CCCC(CCC)C(=O)N[C@@H]1CC[C@H]2CN(Cc3ccccc3)C[C@H]21 [Example 21, N-[(3aS,4R,6aR)-2-benzyloctahydrocyclopenta[c]pyrrol-4-yl]-2-propylpentanamide] | IC50 [2]: 10.1 µM
69.7 µM | c1ccc(CN2C[C@@H]3CC[C@@H](NC4CC4)[C@@H]3C2)cc1 (relative stereo) [Example 197, (3aS*,4R*,6aR*)-2-benzyl-N-cyclopropyloctahydrocyclopenta[c]pyrrol-4-amine] | –
1.2 µM | O=C(N[C@H]1CC[C@H]2CN(CCCc3ccc(F)cc3)C[C@H]21)C(C1CCCCC1)C1CCCCC1 [Example 71, 2,2-dicyclohexyl-N-{(3aS,4S,6aR)-2-[3-(4-fluorophenyl)propyl]octahydrocyclopenta[c]pyrrol-4-yl}acetamide] | –
5.2 µM | O=S(=O)(c1cccc(C(F)(F)F)c1)N(C1CC1)[C@H]1CC[C@H]2CNC[C@H]21 (relative stereo) [Example 201, N-cyclopropyl-N-[(3aS*,4S*,6aR*)-octahydrocyclopenta[c]pyrrol-4-yl]-3-(trifluoromethyl)benzenesulfonamide] | –
0.4 µM | CC(C)C[C@@H](C(=O)N[C@H]1CC[C@H]2CN(Cc3cccc(C(F)(F)F)c3)C[C@H]21)N(C)C(=O)OC(C)(C)C [Example 153, N^2-(tert-butyloxycarbonyl)-N^2-methyl-N^1-{(3aS,4S,6aR)-2-[3-(trifluoromethyl)benzyl]octahydrocyclopenta[c]pyrrol-4-yl}-L-leucinamide] | –
2.09 µM | O=C(N[C@H]1CC[C@@H]2CN(Cc3ccccc3)C[C@@H]21)C(c1ccc(F)cc1)c1ccc(F)cc1 [Example 228, N-[(3aR,4S,6aS)-2-benzyloctahydrocyclopenta[c]pyrrol-4-yl]-2,2-bis(4-fluorophenyl)acetamide] | –
3.07 µM | CN[C@@H](CC(C)C)C(=O)N[C@H]1CC[C@H]2CN(S(=O)(=O)c3ccc(C(F)(F)F)cc3)C[C@H]21 [Example 457, N^2-methyl-N^1-((3aS,4S,6aR)-2-{[4-(trifluoromethyl)phenyl]sulfonyl}octahydrocyclopenta[c]pyrrol-4-yl)-L-leucinamide] | –
– | CC(C)C(C(=O)N[C@H]1CC[C@@H]2CN(CCCc3ccc(C(C)(C)C)cc3)C[C@@H]21)c1ccccc1 (stereo partly drawn) [Example 106, N-{(3aR,4S,6aS)-2-[3-(4-tert-butylphenyl)propyl]octahydrocyclopenta[c]pyrrol-4-yl}-3-methyl-2-phenylbutanamide] | IC50 [2]: 5.8 µM
3.08 µM | CCC[C@H](NC)C(=O)N[C@H]1CC[C@@H]2CN(CCC(c3ccc(F)cc3)c3ccc(F)cc3)C[C@@H]21 [Example 458, N^1-{(3aR,4S,6aS)-2-[3,3-bis(4-fluorophenyl)propyl]octahydrocyclopenta[c]pyrrol-4-yl}-N^2-methyl-L-norvalinamide] | –
– | O=C(N[C@@H]1CC[C@H]2CNC[C@H]21)C(C1CCCCC1)C1CCCCC1 [Example 74, 2,2-dicyclohexyl-N-[(3aS,4R,6aR)-octahydrocyclopenta[c]pyrrol-4-yl]acetamide] | IC50 [2]: 11.2 µM
– | CC(C)C(C(=O)N[C@H]1CC[C@@H]2CN(C(=O)c3ccccc3)C[C@@H]21)c1ccccc1 (stereo partly drawn) [Example 218, N-[(3aR,4S,6aS)-2-benzoyloctahydrocyclopenta[c]pyrrol-4-yl]-3-methyl-2-phenylbutanamide] | inhibition at 10 µM (IMR-32, @ 10 μM, 3 minute pre-incubation (*), read-out: percent inhibition): 56%
0.78 µM | CN(C(=O)OC(C)(C)C)[C@@H](CC(C)(C)C)C(=O)N[C@H]1CC[C@@H]2CN(S(=O)(=O)c3ccc(C(F)(F)F)cc3)C[C@@H]21 [Example 337, tert-butyl(S)-4,4-dimethyl-1-oxo-1-((3aR,4S,6aS)-2-(4-(trifluoromethyl)phenylsulfonyl)octahydrocyclopenta[c]pyrrol-4-ylamino)pentan-2-yl(methyl)carbamate] | –
4 µM | O=C(N[C@H]1CC[C@H]2CN(Cc3ccccc3)C[C@H]21)C(C1CCCCC1)C1CCCCC1 (relative stereo) [Example 11, N-[(3aS*,4S*,6aR*)-2-benzyloctahydrocyclopenta[c]pyrrol-4-yl]-2,2-dicyclohexylacetamide] | –

IC50 [1] | Compound | other results
2.8 µM | CCC(CC)C(=O)N[C@H]1CC[C@H]2CN(Cc3cccc(C(F)(F)F)c3)C[C@H]21 (relative stereo) [Example 125, 2-ethyl-N-{(3aS*,4S*,6aR*)-2-[3-(trifluoromethyl)benzyl]octahydrocyclopenta[c]pyrrol-4-yl}butanamide] | –
3.55 µM | O=C(N[C@@H]1CC[C@H]2CN(S(=O)(=O)c3cccc(C(F)(F)F)c3)C[C@H]21)[C@@H]1CCCN1 [Example 396, N-((3aS,4R,6aR)-2-{[3-(trifluoromethyl)phenyl]sulfonyl}octahydrocyclopenta[c]pyrrol-4-yl)-L-prolinamide] | –
1.75 µM | N-methyl-N-((3aR,4S,6aS)-2-{[4-(trifluoromethyl)phenyl]sulfonyl}octahydrocyclopenta[c]pyrrol-4-yl)-L-phenylalaninamide [Example 430] | –
4.06 µM | CN[C@@H](CC(C)C)C(=O)N[C@@H]1CC[C@H]2CN(Cc3ccc(C(F)(F)F)cc3)C[C@H]21 [Example 449, N^2-methyl-N^1-{(3aS,4R,6aR)-2-[4-(trifluoromethyl)benzyl]octahydrocyclopenta[c]pyrrol-4-yl}-L-leucinamide] | –
0.36 µM | CCC[C@H](NCC(C)(C)C)C(=O)N[C@H]1CC[C@@H]2CN(S(=O)(=O)c3cccc(C(F)(F)F)c3)C[C@@H]21 [Example 253, N^2-neopentyl-N^1-((3aR,4S,6aS)-2-{[3-(trifluoromethyl)phenyl]sulfonyl}octahydrocyclopenta[c]pyrrol-4-yl)-L-norvalinamide] | –
2.06 µM | CCN(C(=O)OC(C)(C)C)[C@@H](CC(C)C)C(=O)N[C@H]1CC[C@@H]2CN(Cc3ccccc3)C[C@@H]21 [Example 223, tert-butyl(S)-1-((3aR,4S,6aS)-2-benzyloctahydrocyclopenta[c]pyrrol-4-ylamino)-4-methyl-1-oxopentan-2-yl(ethyl)carbamate] | –
0.89 µM | CCC(CC)N[C@@H](CC(C)(C)C)C(=O)N[C@H]1CC[C@@H]2CN(S(=O)(=O)c3ccc(C(F)(F)F)cc3)C[C@@H]21 [Example 503, N^2-(1-ethylpropyl)-4-methyl-N^1-((3aR,4S,6aS)-2-{[4-(trifluoromethyl)phenyl]sulfonyl}octahydrocyclopenta[c]pyrrol-4-yl)-L-leucinamide] | –
– | CC(C)C(C(=O)N[C@@H]1CC[C@@H]2CN(Cc3ccccc3)C[C@@H]21)c1ccccc1 (relative stereo) [Example 5, N-[(3aR*,4R*,6aS*)-2-benzyloctahydrocyclopenta[c]pyrrol-4-yl]-3-methyl-2-phenylbutanamide] | IC50 [2]: 3.8 µM
2.15 µM | CC(C)C[C@@H](C(=O)N[C@@H]1CC[C@H]2CN(Cc3ccccc3)C[C@H]21)N(C)Cc1ccc(F)cc1 [Example 513, N^1-[(3aS,4R,6aR)-2-benzyloctahydrocyclopenta[c]pyrrol-4-yl]-N^2-(4-fluorobenzyl)-N^2-methyl-L-leucinamide] | –
7 µM | CN[C@H](C(=O)N[C@@H]1CC[C@H]2CN(Cc3ccc(C(F)(F)F)cc3)C[C@H]21)C(C)C [Example 367, N^2-methyl-N^1-{(3aS,4R,6aR)-2-[4-(trifluoromethyl)benzyl]octahydrocyclopenta[c]pyrrol-4-yl}-L-valinamide] | –
2.71 µM | CN[C@@H](CC(C)C)C(=O)N[C@@H]1CC[C@H]2CN(S(=O)(=O)c3ccc(Cl)cc3)C[C@H]21 [Example 447, N^1-{(3aS,4R,6aR)-2-[(4-chlorophenyl)sulfonyl]octahydrocyclopenta[c]pyrrol-4-yl}-N^2-methyl-L-leucinamide] | –
1.84 µM | CC(C)(C)C[C@H](NCC1CCCCC1)C(=O)N[C@H]1CC[C@@H]2CN(S(=O)(=O)c3ccc(C(F)(F)F)cc3)C[C@@H]21 [Example 475, N^2-(cyclohexylmethyl)-4-methyl-N^1-((3aR,4S,6aS)-2-{[4-(trifluoromethyl)phenyl]sulfonyl}octahydrocyclopenta[c]pyrrol-4-yl)-L-leucinamide] | –
3.03 µM | CN[C@@H](CC(C)C)C(=O)N[C@H]1CC[C@@H]2CN(S(=O)(=O)c3ccc(F)cc3)C[C@@H]21 [Example 455, N^1-{(3aR,4S,6aS)-2-[(4-fluorophenyl)sulfonyl]octahydrocyclopenta[c]pyrrol-4-yl}-N^2-methyl-L-leucinamide] | –
2.5 µM | CC(C)Cc1ccc([C@H](C)C(=O)N[C@@H]2CC[C@H]3CN(Cc4ccccc4)C[C@H]32)cc1 [Example 23, (2S)—N-[(3aS,4R,6aR)-2-benzyloctahydrocyclopenta[c]pyrrol-4-yl]-2-(4-isobutylphenyl)propanamide] | –
1.4 µM | O=S(=O)(N[C@@H]1CC[C@H]2CN(Cc3ccc(C(F)(F)F)c(F)c3)C[C@H]21)c1cccc(C(F)(F)F)c1 [Example 194, N-{(3aS,4R,6aR)-2-[3-fluoro-4-(trifluoromethyl)benzyl]octahydrocyclopenta[c]pyrrol-4-yl}-3-(trifluoromethyl)benzenesulfonamide] | –
